± gives the expanded uncertainty stated by the source.
Assay: xn = mol fraction of the nth substance listed
Conditions: 101 kPa, Liquid; for viscosity: Capillary tube (Ostwald / Ubbelohde) method; for mass density: Pycnometric method

Cc1ccncc1 [4-methylpyridine] + O
Conditions	mass density, 298.15 K [kg/m3]	mass density, 303.15 K [kg/m3]	mass density, 308.15 K [kg/m3]	mass density, 313.15 K [kg/m3]	viscosity, 298.15 K [mPa·s]	viscosity, 303.15 K [mPa·s]	viscosity, 308.15 K [mPa·s]	viscosity, 313.15 K [mPa·s]	viscosity, 318.15 K [mPa·s]
x1 = 0.0211	996.2 ± 0.4	994.2 ± 0.4	992.1 ± 0.5	990 ± 0.5	1.172 ± 0.01	1.037 ± 0.0098	0.9037 ± 0.0084	0.8272 ± 0.0074	0.7494 ± 0.0069
x1 = 0.0489	993.6 ± 0.5	991.2 ± 0.5	988.3 ± 0.5	986 ± 0.5	1.499 ± 0.013	1.325 ± 0.012	1.165 ± 0.011	1.044 ± 0.0095	0.9363 ± 0.0085
x1 = 0.1143	991.3 ± 0.5	987.9 ± 0.6	984.5 ± 0.6	980.9 ± 0.6	2.141 ± 0.017	1.844 ± 0.018	1.58 ± 0.015	1.4 ± 0.013	1.234 ± 0.011
x1 = 0.225	984.8 ± 0.8	981.2 ± 0.6	977.6 ± 0.7	973.2 ± 0.7	2.602 ± 0.021	2.238 ± 0.021	1.924 ± 0.018	1.682 ± 0.016	1.467 ± 0.014
x1 = 0.3111	983 ± 0.6	978.7 ± 0.7	974.2 ± 0.7	969.5 ± 0.7	2.521 ± 0.022	2.164 ± 0.02	1.9 ± 0.018	1.649 ± 0.016	1.441 ± 0.013
x1 = 0.4	978.9 ± 0.9	972.1 ± 0.7	970.7 ± 0.6	965.9 ± 0.8	2.202 ± 0.021	1.904 ± 0.017	1.789 ± 0.015	1.561 ± 0.015	1.365 ± 0.013
x1 = 0.5	970.4 ± 1	965.4 ± 0.5	964.9 ± 0.5	960.5 ± 0.7	1.88 ± 0.017	1.657 ± 0.014	1.595 ± 0.013	1.419 ± 0.013	1.263 ± 0.011
x1 = 0.6353	964.1 ± 0.8	959.8 ± 0.7	955.3 ± 0.8	950.5 ± 0.8	1.539 ± 0.015	1.381 ± 0.012	1.247 ± 0.011	1.129 ± 0.01	1.019 ± 0.009
x1 = 0.75	961.4 ± 0.8	956.4 ± 0.8	950.5 ± 0.8	945.9 ± 0.7	1.379 ± 0.013	1.16 ± 0.011	1.068 ± 0.0095	0.9708 ± 0.0088	0.8874 ± 0.0081
x1 = 0.9	958.7 ± 0.7	953.8 ± 1	946 ± 0.9	941.6 ± 0.7	1.09 ± 0.0097	0.9871 ± 0.01	0.7846 ± 0.0083	0.7395 ± 0.0066	0.6952 ± 0.0063
x1 = 1	955.4 ± 0.7	951.1 ± 1.1	941.3 ± 1.1	936.6 ± 0.8	0.8723 ± 0.0077	0.8175 ± 0.0073	0.7774 ± 0.0069	0.7368 ± 0.0067	0.6855 ± 0.0063
